Measured values from US9238643B2, “Amide compounds” (Guangzhou Institutes of Biomedicine and Health, Chinese …, priority 2010, dated 2016).

System: IL-1β secretion of BV2
Assay: Inhibition of LPS-induced IL-1β secretion of BV2 microglial cells (ELISA)
Assay type: cell-based
Details: BV-2, 24 hours; for IC50: BV2 cells, 300 ng/ml LPS induction, IL-1β by ELISA, read-out: IC50 of inhibition of the compounds of the present application to IL-1β secretion of BV2; for inhibition at 0.02 µM: Mus musculus, IL-1β secretion of BV2, compound concentration 20 nM, LPS induction, read-out: Inhibition rate (%) at 20 nM
Procedure: 1. […] microglial cell BV2 and Glioma cell line C6 are incubated in DMEM culture medium with 10% FBS, and the 6th to 15th generation culture cells are applicable for compound activity selection. Culture cells are innoculated on the 24-well cell culturing plate with 50,000 cells/well, after one day culturing, switch to low serum medium (with 2% FBS) for another 16 hours culturing. Add 300 ng/ml (for induction of BV2 cells) or 1 mg/mL (for induction of C6 cells) LPS (Salmonella typhimutium) to the culture medium to induce the IL-1β secretion of culture cells. At the same time, add sample to be determined (with DMSO≦0.1%) at concentrations of 200 pM, 20 nM, 2 μM and 200 μM; add 0.1% DMSO to blank as solvent control.
2. 24 hours after LPS induction/drug treatment, collect the culture solution and quantitatively measure the level of IL-1β. Centrifuge the culture solution at 8,000 g for 10 min at 4° C., and remove the floating particle impurities. Dilute the supernant one time, and take 150 μL sample for ELISA (Biosource) measurement.
3. Treatment of culture cells and ELISA measurement are conducted with double blind method.
4 Inhibition efficiency of candidate compound is calculated according to formula, and IC50 of every kind of candidate compound is calculated. Inhibition efficiency(%)=([IL-1β]LPS induction−[IL-1β]medical treatment)/[IL-1β]LPS induction×100%. Formula
5. Efficiency evaluation of candidate compound: positive inhibition rate of compound to IL-1β secretion of BV2 is the standard judgment of compounds efficiency; negative inhibition rate of compound to IL-1β secretion of C6 is the standard judgment of compounds safety.

IC50 | Structure (SMILES) | inhibition at 0.02 µM
0.56 nM | Cc1cc(-c2ccccc2)nnc1C(=O)N1CCN(c2ccc(F)cc2)CC1 [Compound 4, (4-(4-fluorophenyl)piperazinyl) (4-methyl-6-phenylpyridazinyl) ketone] | 54.6%
0.11 nM | Cc1cc(-c2ccccc2)nnc1C(=O)N1CCN(C)CC1 [Compound 26, (N-methylpiperazinyl) (4-methyl-6-phenylpyridazinyl) ketone] | –
0.16 nM | O=C(c1nc(-c2ccccc2)nc2ccccc12)N1CCN(c2ncccn2)CC1 [Compound 12a, (4-(pyrimid-2-yl)piperazinyl) (2-phenylquinazolinyl) ketone] | 46.1%
24.3 nM | O=C(c1nc(-c2ccccc2)nc2ccccc12)N1CCN(c2ccccn2)CC1 [Compound 13, (4-(2-pyridinyl)piperazinyl)(2-phenylquinazolinyl)ketone] | –
1.42 nM | O=C(c1nc(-c2ccccc2)nc2ccccc12)N1CCN(c2ncc(F)cn2)CC1 [Compound 12, (4-(5-fluoropyrimid-2-yl)piperazinyl)(2-phenylquinazolinyl) ketone] | –
3.38 nM | O=C(c1nc(-c2ccccc2)nc2ccccc12)N1CCN(c2ccc(F)cc2)CC1 [Compound 11, (4-(4-fluorophenyl)piperazinyl) (2-phenylquinazolinyl) ketone] | –
42.5 nM | O=C(c1n[nH]c2c(F)ccc(F)c12)N1CCN(c2ccc(F)cc2)CC1 [Compound 20, (4-(4-fluorophenyl)piperazinyl) (4,7-difluoroindazol-3-yl) ketone] | 48.06 ± 0.0618%
5.49 nM | Cc1cc(-c2ccccc2)nnc1C(=O)N1CCN(c2ncc(F)cn2)CC1 [Compound 24] | –

Structure (SMILES) | IC50 | inhibition at 0.02 µM
Cc1cc(-c2ccccc2)nnc1C(=O)N1CCN(c2ncccn2)CC1 [Compound 5, (2-pyrimidylpiperazinyl)(4-methyl-6-phenylpyridazinyl)ketone] | 0.6 nM | 54.5%
